{"source": "patent US4753958A", "about": "“Photochemotherapy of epithelial diseases with derivatives of hematoporphyrins” (priority 1986, dated 1988)", "key": {"guinea pig skin [1]": {"tested_on": "guinea pig skin", "test": "Cutaneous phototoxicity after systemic (I.P.) administration and UVA", "type": "in vivo, Guinea pigs", "settings": "10 mg/kg I.P., graded 24 hours post light", "description": "(§1) HPD, DHE, hematoporphyrin and protoporphyrin were provided by Dr. Thomas J. Dougherty, Roswell Park Memorial Institute, Buffalo, NY. Hydroxyvinyldeuteroporphyrin was obtained from Porphyrin Products, Salt Lake City, UT.\nGuinea pigs were treated systemically (I.P.) with the various porphyrins, each at a dose of 10 mg/kg. Animals were then irradiated with UVA (20 J/cm^2), either at 6 hours or 24 hours post drug administration. Erythema was graded at 24 hours post light treatment."}, "skin cancers": {"tested_on": "skin cancers", "settings": "cited from earlier work"}, "psoriasis": {"tested_on": "psoriasis", "settings": "oral methoxysalen plus long-wave ultraviolet light (PUVA); cited from earlier work"}, "guinea pig skin [2]": {"tested_on": "guinea pig skin", "test": "Cutaneous phototoxicity after intradermal administration and UVA (minimum phototoxic dose)", "type": "in vivo", "settings": "intradermal 5-500 μg/0.1 ml; UVA 20 J/cm^2 6 hours post injection", "description": "as §1\n(§2) Drugs were administered intradermally at doses ranging from 5-500 μg/0.1 ml. Sites were then treated with UVA (20 J/cm^2) 6 hours post drug injection."}, "epidermal DNA synthesis": {"tested_on": "epidermal DNA synthesis", "test": "Effect of topical DHE plus UVA on epidermal DNA synthesis in vivo", "set-up": "species or system Mini-pigs", "description": "The topical activity of DHE was evaluated in vivo in a mini-pig model.\nMini-pigs were obtained from Charles River Laboratories, Inc. (Wilmington, MA). Drug preparations were applied to small areas of dorsal skin (ca 1 inch square) according to the selected application schedules. Six hours following the last drug application, tritiated thymidine was injected into the drug treatment sites for autoradiographic assessment of epidermal proliferation as measured by epidermal labeling index. Weinstein & Van Scott, (1965) J. Invest. Derm. 44:413.\nDHE was acid precipitated from a Photofrin II solution by adjusting the pH to 3.5. The precipitated DHA was washed extensively with distilled water until the pH of the filtrate reached 6.0. The DHE powder was vacuum dried, reconstituted in distilled water, and the pH adjusted to 7.0. Aqueous DHE was then mixed with isopropanol and Azone. […] This formulation was applied to selected areas of mini-pig skin approximately 6 hours before irradiation with UVA. Epidermal DNA synthesis was assayed as described above. At 0, 24, 48, and 72 hours post-irradiation, the animals were injected at the selected sites with isotopic precursors (tritiated thymidine). The animals were biopsied one hour after isotopic injection."}, "guinea pig skin [3]": {"tested_on": "guinea pig skin", "test": "Drug/UVA dosimetry with intradermal HPD and DHE", "type": "in vivo", "description": "as §1, §2\nAdditional studies were done with intradermal HPD and DHE to study the drug/UVA dosimetry."}, "malignant cells": {"tested_on": "malignant cells", "settings": "HPD enriched for DHE, administered systemically; cited from earlier work"}}, "data": [{"compound": "CC1=C(CCC(=O)O)c2cc3[nH]c(cc4nc(cc5[nH]c(cc1n2)c(C)c5C(C)O)C(C)=C4C(C)O)c(C)c3CCC(=O)O", "note": "(stereo not shown) [hematoporphyrin]", "values": [{"measurement": "erythema response", "setting": "guinea pig skin [1]; UVA 20 J/cm^2 at 6 hours", "value": "mild response"}]}, {"compound": "COc1c2occc2cc2ccc(=O)oc12", "note": "[methoxysalen]", "values": [{"measurement": "skin cancers in patients following PUVA", "setting": "skin cancers", "value": "increased pattern of skin cancers"}, {"measurement": "clinical effectiveness in psoriasis", "setting": "psoriasis", "value": "relatively effective for the majority of patients"}]}, {"compound": "C=CC1=C(C)c2cc3[nH]c(cc4nc(cc5[nH]c(cc1n2)c(C)c5CCC(=O)O)C(CCC(=O)O)=C4C)c(C)c3C=C", "note": "[protoporphyrin]", "values": [{"measurement": "erythema response", "setting": "guinea pig skin [1]; UVA 20 J/cm^2 at 6 hours", "value": "No response"}]}, {"compound": "Hydroxyvinyldeuteroporphyrin", "values": [{"measurement": "erythema response", "setting": "guinea pig skin [1]; UVA 20 J/cm^2 at 6 hours", "value": "No response"}, {"measurement": "minimum phototoxic dose", "setting": "guinea pig skin [2]", "value": "> 500", "unit": "µg"}]}, {"compound": "dihematoporphyrin ether [DHE]", "values": [{"measurement": "erythema response", "setting": "guinea pig skin [1]; UVA 20 J/cm^2 at 6 hours", "value": "significant response"}, {"measurement": "erythema response", "setting": "guinea pig skin [1]; UVA 20 J/cm^2 at 24 hours, compared with 6 hours for HPD and DHE", "value": "greater"}, {"measurement": "time of maximum effect post light treatment", "setting": "epidermal DNA synthesis; 1% DHE topical plus UVA, autoradiographically and clinically", "value": 72, "unit": "h"}, {"measurement": "inhibition of DNA synthesis compared to vehicle control plus UVA", "setting": "epidermal DNA synthesis; 1% DHE topical, 48% isopropanol, 4% Azone, 48% water, 5-10 applications plus UVA, FIG. 1", "value": "significant inhibition of DNA synthesis"}, {"measurement": "erythema, UVA at 24 hours vs 6 hours post injection", "setting": "guinea pig skin [3]; intradermal", "value": "more pronounced erythema"}, {"measurement": "UVA dose effective in producing erythema", "setting": "guinea pig skin [3]; intradermal DHE 5 μg/cm^2", "value": 1, "unit": "J/cm^2"}, {"measurement": "erythema response compared with HPD", "setting": "guinea pig skin [3]; intradermal DHE 5 μg/cm^2, comparable treatments", "value": "slightly greater than with comparable treatments with HPD"}, {"measurement": "area of erythema, UVA at 24 hours vs 6 hours post injection", "setting": "guinea pig skin [3]; intradermal, local drug diffusion from injection site", "value": "larger area of erythema"}, {"measurement": "minimum phototoxic dose", "setting": "guinea pig skin [2]", "value": 5, "unit": "µg"}, {"measurement": "phototoxicity toward malignant cells", "setting": "malignant cells", "value": "phototoxic properties toward malignant cells"}]}]}
